{"source": "patent US20060078875A1", "about": "“Genetic selection of small molecule modulators of protein-protein interactions” (The Penn State Research Foundation, priority 2004, published 2006)", "key": {"ATIC homodimer": {"target": "T1, ATIC homodimer (Gallus gallus, UniProt P31335)", "T1 construct": "expressed in transfected cells; host or cells: E. coli RTHS strain with the ATIC fusion integrated on the chromosome", "T1 sequence (P31335 1-593)": "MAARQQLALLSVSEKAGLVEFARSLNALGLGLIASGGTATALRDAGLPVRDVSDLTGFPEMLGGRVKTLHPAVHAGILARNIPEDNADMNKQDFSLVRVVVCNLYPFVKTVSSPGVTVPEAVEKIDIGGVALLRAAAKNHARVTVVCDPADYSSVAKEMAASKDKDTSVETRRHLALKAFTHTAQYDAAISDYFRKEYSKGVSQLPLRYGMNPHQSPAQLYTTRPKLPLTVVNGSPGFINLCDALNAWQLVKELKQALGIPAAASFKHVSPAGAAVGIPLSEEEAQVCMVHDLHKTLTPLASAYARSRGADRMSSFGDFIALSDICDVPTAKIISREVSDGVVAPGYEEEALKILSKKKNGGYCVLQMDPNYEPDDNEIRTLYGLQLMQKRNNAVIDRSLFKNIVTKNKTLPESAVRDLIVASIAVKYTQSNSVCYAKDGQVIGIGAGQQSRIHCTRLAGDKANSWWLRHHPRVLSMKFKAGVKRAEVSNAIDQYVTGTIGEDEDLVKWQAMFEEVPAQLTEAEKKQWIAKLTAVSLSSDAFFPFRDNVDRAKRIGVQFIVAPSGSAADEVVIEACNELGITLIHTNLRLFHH", "assay": "ATIC RTHS ranking by spotting serial dilutions on selective media", "assay_type": "cell-based", "conditions": "cyclic peptides in order of biological activity (1 = most active)", "procedure": "ATIC was cloned as a fusion with the bacteriophage 434 repressor DNA binding domain (into pTHCP16, FIG. 1B) such that expression of the repressor-ATIC fusion placed under control of an isopropyl β-D-thiogalactoside (IPTG) inducible promoter. […] In order to improve selection conditions, a new RTHS strain was constructed by integrating the ATIC fusion onto the chromosome. The level of IPTG giving optimal repression was determined to be 50 μM by β-galactosidase assays.\nThe first SICLOPPS library transformed into the selection strain encoded a hexapeptide with five random residues and a cysteine nucleophile. Approximately 10^7 transformants were plated onto histidine-free minimal media supplemented with arabinose, (inducer for SICLOPPS) 3-amino-1,2,4-triazole (3-AT, competitive inhibitor of HIS3 product) and kanamycin at a density of 10^6 per plate (100×15 mm). The plates were incubated until colonies were readily visible (approximately one in 10^5). A second library encoding an octapeptide with five random residues and an invariable SGW motif was also tested (not shown). Around 200 colonies were picked and screened for arabinose dependent growth advantage and IPTG dependent inhibition of growth to eliminate false positives. The expected phenotype was further confirmed by isolating and retransforming the selected SICLOPPS plasmids into the selection strain. The 14 remaining cyclic peptides were then ranked for activity by spotting serial dilutions of the corresponding cells onto selective media, allowing the conferred growth advantage to be compared at each dilution level.\nSICLOPPS libraries were transformed into E. coli strains containing integrated reporter and repressor constructs. Transformants were washed with minimal media A and plated on minimal media A supplemented with 13 μM L-(+)-arabinose, 2.5 mM 3-amino-1,2,4-triazole, 25 μM kanamycin and 50 μM IPTG. After incubation at 37° C. for 3-4 days, surviving colonies were restreaked onto the same media with and without arabinose. Plasmids from selected strains whose growth depended on the presence of arabinose were retransformed into the original selection strain and checked for phenotype retention. The variable insert regions on SICLOPPS plasmids were PCR-amplified, and their DNA sequence determined."}, "avian ATIC (AICAR Tfase)": {"target": "T2, avian ATIC (AICAR Tfase) (Gallus gallus, UniProt P31335)", "T2 sequence (P31335 1-593)": "T1 sequence (P31335 1-593)", "assay": "AICAR Tfase progress curve analysis (DynaFit)", "assay_type": "biochemical", "parameters": "6× histidine tag (N); made in house", "conditions": "progress curves", "experimental": "The inhibitors were assayed under two conditions, limiting the amount of each substrate. In one case 168 nM of ATIC, 100 μM of 10-f-THF and 20 μM of AICAR was used (limiting AICAR), and in the second case 168 nM of ATIC, 40 μM of 10-f-THF and 100 μM of AICAR was used (limiting 10-f-THF). The reactions were monitored as outlined above, for 50 minutes. […] The data was fitted to the standard inhibition models (non-competitive, uncompetitive, mixed and competitive) and a model in which the inhibitor binds a monomer of ATIC preventing dimerization.\nThe progress curves were fitted to a model in which the inhibitor binds a single protomer of ATIC thereby preventing dimerization, as well as the standard inhibition models (non-competitive, uncompetitive, mixed and competitive) using DynaFit [Kuzmic (1996)]."}, "His6-mR2": {"target": "T3, His6-mR2 (Mus musculus, UniProt P11157)", "T3 construct": "made in house; host or cells: E. coli BL21(λDE3), pET28a-MR2", "T3 sequence (P11157 1-390)": "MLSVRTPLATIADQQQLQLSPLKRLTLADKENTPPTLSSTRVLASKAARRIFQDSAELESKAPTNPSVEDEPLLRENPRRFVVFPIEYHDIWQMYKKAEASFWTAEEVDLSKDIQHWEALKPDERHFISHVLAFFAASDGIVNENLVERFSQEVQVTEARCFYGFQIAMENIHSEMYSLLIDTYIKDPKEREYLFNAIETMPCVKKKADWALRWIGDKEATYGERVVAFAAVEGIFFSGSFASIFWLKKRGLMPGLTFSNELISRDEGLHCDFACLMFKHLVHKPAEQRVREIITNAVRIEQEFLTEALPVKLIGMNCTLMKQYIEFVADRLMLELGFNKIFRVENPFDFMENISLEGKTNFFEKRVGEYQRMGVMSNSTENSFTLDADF", "assay": "Quenching of intrinsic mR2 tryptophan fluorescence", "assay_type": "binding, murine", "conditions": "PBS pH 7.0", "procedure": "The equilibrium dissociation constant, KD, for His-tagged mR2·cRR130 complex was measured by the quenching of intrinsic protein fluorescence as a function of ligand concentration using a Flouromax-2 (SA Instruments) spectrofluorometer. His6-mR2 was added to 1× phosphate buffered saline (PBS) buffer at pH 7.0, and enzyme concentrations were kept below the KD being measured and were typically 1 μM. The small subunit mR2 contains six tryptophan residues whose combined fluorescence was monitored at 350 nm with excitation at 295 nm. Fluorescence data were collected as a function of added cRR130. The data was corrected for ligand background fluorescence and were fit to a hyperbolic equation to generate the KD value."}, "[1]": {"target": "T4, ribonucleotide reductase large subunit (mR1) (Mus musculus, UniProt P07742)", "T4 construct": "made in house; host or cells: E. coli BL21(λDE3) Rosetta, pET28a-MR1", "T4 sequence (P07742 1-792)": "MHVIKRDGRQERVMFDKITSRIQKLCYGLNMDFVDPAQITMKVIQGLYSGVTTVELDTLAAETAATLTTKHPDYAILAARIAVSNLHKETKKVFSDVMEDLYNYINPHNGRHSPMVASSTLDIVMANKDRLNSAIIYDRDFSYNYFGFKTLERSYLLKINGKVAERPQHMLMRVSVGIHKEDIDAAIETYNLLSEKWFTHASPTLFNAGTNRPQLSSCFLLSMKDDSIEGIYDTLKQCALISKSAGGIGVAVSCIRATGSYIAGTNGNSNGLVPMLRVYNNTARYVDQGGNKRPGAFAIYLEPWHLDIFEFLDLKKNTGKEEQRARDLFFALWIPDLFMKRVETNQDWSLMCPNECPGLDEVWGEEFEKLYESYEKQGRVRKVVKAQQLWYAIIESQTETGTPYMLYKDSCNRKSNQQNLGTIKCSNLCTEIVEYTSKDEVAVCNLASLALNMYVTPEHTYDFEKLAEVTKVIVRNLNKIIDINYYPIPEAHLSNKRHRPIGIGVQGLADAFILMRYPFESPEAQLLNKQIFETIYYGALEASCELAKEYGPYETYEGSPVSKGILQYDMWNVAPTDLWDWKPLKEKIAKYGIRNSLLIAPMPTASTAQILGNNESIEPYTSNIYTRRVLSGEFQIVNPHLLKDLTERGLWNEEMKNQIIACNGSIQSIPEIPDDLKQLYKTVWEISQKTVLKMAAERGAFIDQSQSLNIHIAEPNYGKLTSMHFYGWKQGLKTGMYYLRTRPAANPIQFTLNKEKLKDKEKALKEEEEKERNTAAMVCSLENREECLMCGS", "assay": "Immobilized peptide binding/competition ELISA with mR1", "parameters": "species or system murine", "conditions": "peptide immobilized via cysteine on maleimide plates; His6-tagged mR1", "procedure": "(§1) FIG. 8B provides the results of an immobilized P8 ELISA.\n(§2) Two variations of solid phase binding assays were used for analyzing the binding of peptide inhibitors to ribonucleotide reductase subunits: i) protein competition ELISA where peptides were competing with mR1 for binding to immobilized mR2, ii) binding and competition ELISA with covalently immobilized ligands. In general, the solid phase assays were performed in microtiter plates (MaxiSorp, Nunc) or strip units (Reacti-Bind™ Maleimide Activated Clear Strip Plates, Pierce) involving continuous agitation in Junior Orbit Shaker (Lab-line Instruments) at medium speed during all of the incubation steps. Sample volumes were 100 μL, unless specified otherwise. Following coating, blocking step was conducted by incubating pre-loaded wells with 5% bovine serum albumin in PBS for 1 h at room temperature. Wash procedures between any two successive incubations involved three washes with 200 μL of 0.5% Tween-20 in PBS (PBST), with the second wash involving a 5 min incubation. Detection of His-tagged proteins was performed with Ni·NTA-HRP conjugate (Qiagen) according to the manufacturer instructions.\n(§3) Peptides (200 nmol per well) in 10% DMF/50 mM Tris·HCl (pH 7.5) with 1 mM TCEP were reacted for 2 h at room temperature with maleimide-derivatized polystyrene wells. The unreacted sites were blocked by incubating wells with 5 μM cysteine in 50 mM Tris·HCl (pH 7.5) for 30 min. Following washing and blocking steps, the wells were incubated with His-tagged mR1 or mR2 in the presence or absence of inhibitors. The retained protein was detected via Ni·NTA-HRP conjugate.\n(§4) To determine the mechanism of action of the four identified sequences an alternative assay format was devised (FIG. 8A), where a peptide with a residual activity in its immobilized form can serve as a specific ligand for receptor capture in both binding and competition ELISA. The success of such an assay relies on both efficient peptide immobilization strategy and sufficient level of affinity, uncompromised by this display strategy. The peptide immobilization becomes feasible through implementation of a cysteine, a nucleophile used in splicing, as a universal chemoselective handle allowing covalent attachment strategy through a suitable electrophile. Chemoselective attachment of such peptides on appropriately derivatized surfaces should both display the small molecules for detection with a suitable protein receptor and allow binding site competition analysis, not unlike in a traditional immunosorbent format."}, "[2]": {"target": "T5, ribonucleotide reductase small subunit (mR2) (Mus musculus, UniProt P11157)", "T5 construct": "made in house; host or cells: E. coli BL21(λDE3), pET28a-MR2", "T5 sequence (P11157 1-390)": "T3 sequence (P11157 1-390)", "assay": "Immobilized c-RR130 binding/competition ELISA with mR2", "parameters": "species or system murine", "conditions": "increasing protein concentrations", "procedure": "as §1, §2, §3, §4"}, "HIV-1 protease": {"target": "T6, HIV-1 protease (Human immunodeficiency virus type 1 group M subtype B, UniProt P04585, D513N)", "T6 construct": "HIV-1 protease was PCR amplified from pET-HIV-1; expressed in transfected cells; host or cells: E. coli strain SNS118 (integrated fusion)", "assay": "RTHS β-galactosidase assay, HIV-1 protease fusion in strain SNS118", "assay_type": "cell-based", "conditions": "peptide co-expressed with HIV-1 protease fusion", "procedure": "FIG. 4 has two graphs (A and B) of β-galactosidase assays showing the effect of linear peptide inhibitors on the oligomeric state of HIV-1 protease and ribonucleotide reductase.\npHIV5. HIV-1 protease was PCR amplified from pET-HIV-1 [Ido et al. (1991) J. Biol. Chem. 266:24359-24366] and cloned into SalI and BamHI sites of pTHCP16. The catalytic aspartate (D25) was mutated to asparagine using 3-primer PCR [Michael (1994) Biotechniques 16:410-412], and a S(G)4S linker was added at the SalI site.\nOverlapping oligonucleotides encoding MTVSYEL (methionine plus hexapaptide control inhibitor) (SEQ ID:17) [Schramm et al. (1996) Antiviral Res. 30:155-170] were cloned into EcoRI and SphI sites on arabinose expression plasmid pBAD18.\nTowards this goal, both enzyme complexes were probed with known linear peptidic inhibitors. These peptides are a C-terminal hexapeptide (FIG. 4A, pHIV16) for HIV protease that inhibits the essential β-sheet interactions [Schramm al. (1996) Antiviral Res. 30:155-170], and a heptapeptide for ribonucleotide reductase (pTHCP35, FIG. 4B) that competes with binding between subunits mR1 and mR2 [Yang et al. (1990) FEBS Lett. 272:61-64]."}}, "note": "Peptide text beside a SMILES is read from it."}
{"compound": "CC(C)[C@@H]1NC(=O)[C@H](CC(N)=O)NC(=O)[C@H](Cc2ccccc2)NC(=O)[C@H](Cc2ccc(O)cc2)NC(=O)[C@H](CCCNC(=N)N)NC(=O)[C@H](CS)NC1=O", "note": "[c-1a, R Y F N V C] (cyclo(RYFNVC))", "values": [{"measurement": "Activity Rank", "setting": "ATIC homodimer", "value": 1}, {"measurement": "Best-fitting inhibition model with respect to 10-f-THF", "setting": "avian ATIC (AICAR Tfase)", "value": "inhibition of enzyme dimerization"}, {"measurement": "Best-fitting inhibition model with respect to AICAR", "setting": "avian ATIC (AICAR Tfase)", "value": "non-competitive inhibition model"}]}
{"compound": "CC(C)[C@@H]1NC(=O)[C@H](CC(N)=O)NC(=O)[C@H](Cc2ccc(O)cc2)NC(=O)[C@H](Cc2ccc(O)cc2)NC(=O)[C@H](CCCNC(=N)N)NC(=O)[C@H](CS)NC1=O", "note": "[c-RR130] (cyclo(CRYYNV))", "values": [{"measurement": "Kd", "setting": "His6-mR2", "value": 53, "unit": "µM"}, {"measurement": "Affinity of immobilized peptide toward mR1", "setting": "[1]", "value": "immune"}, {"measurement": "Capture of His6-tagged mR2 by immobilized peptide", "setting": "[2]", "value": "selectively captured"}]}
{"compound": "CC(C)[C@@H]1NC(=O)[C@H](Cc2ccc(O)cc2)NC(=O)[C@H](CCCNC(=N)N)NC(=O)[C@H](Cc2c[nH]cn2)NC(=O)[C@H](CS)NC(=O)[C@H](Cc2ccccc2)NC1=O", "note": "[c-RR133] (cyclo(CHRYVF))", "values": [{"measurement": "Kd", "setting": "His6-mR2", "value": 133, "unit": "µM"}]}
{"compound": "MTVSYEL [pHIV16]", "values": [{"measurement": "Repression of the lacZ reporter", "setting": "HIV-1 protease", "value": "relieved repression"}]}
